Reference: paper PMC10354055, “An optimized Nurr1 agonist provides disease-modifying effects in Parkinson’s disease models” (Nature Communications, 2023)
Values joined by “and” are separate entries in the source; they are usually repeats but may differ in a detail not shown here. Identical values can stand only once.

Key:
Type in all cases: cell-based
[1] = target: T1, Nurr1-LBD point mutants (Mus musculus, UniProt Q06219, D594A); test: Luciferase assay with point-mutants of Nurr1-LBD, SK-N-BE(2)C cells;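 note: Firefly luciferase normalized to beta-galactosidase activity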; details: Supplementary Fig. 2, D594A
T1 construct: expressed in transfected cells; host or cells: SK-N-BE(2)C
Procedure: (§1) Nurr1 transactivity was normalized to β-galactosidase activity.
(§2) Nurr1 mutants were generated using the QuikChange ǁ XL site-directed mutagenesis kit (Agilent Technologies) according to the manufacturer’s instruction. Mutagenesis reactions were carried out on the plasmid of mouse Nurr1 cloned into pcDNA3.1 backbone, and then verified by sequencing.

[2] = target: T2, Nurr1-LBD point mutants (Mus musculus, UniProt Q06219, K590A); test: as above; details: Supplementary Fig. 2, K590A
T2 construct: expressed in transfected cells; host or cells: SK-N-BE(2)C
Procedure: as §1, §2

[3] = target: T3, Nurr1-LBD point mutants (Mus musculus, UniProt Q06219, L593A); test: as above; details: Supplementary Fig. 2, L593A
T3 construct: expressed in transfected cells; host or cells: SK-N-BE(2)C
Procedure: as §1, §2

[4] = target: T4, Nurr1-LBD point mutants (Mus musculus, UniProt Q06219, S441A); test: as above; details: Supplementary Fig. 2, S441A
T4 construct: expressed in transfected cells; host or cells: SK-N-BE(2)C
Procedure: as §1, §2

[5] = target: T5, Nurr1-LBD point mutants (Mus musculus, UniProt Q06219); test: as above; details: Supplementary Fig. 2, WT
T5 construct: expressed in transfected cells; host or cells: SK-N-BE(2)C
Procedure: as §1, §2

[6] = target: T6, Nur77 (Homo sapiens, UniProt P22736); test: Luciferase reporter assay, Nur77 LBD, SK-N-BE(2)C cells; details: Fig. 1f, CQ 100 µM, 4A7C-301 20 µM, cytosporone B 10 µM
T6 construct: using LBD of NR4A subfamily members in SK-N-BE(2)C cells; expressed in transfected cells; host or cells: SK-N-BE(2)C
T6 sequence (P22736 360-595 limits assumed, species assumed): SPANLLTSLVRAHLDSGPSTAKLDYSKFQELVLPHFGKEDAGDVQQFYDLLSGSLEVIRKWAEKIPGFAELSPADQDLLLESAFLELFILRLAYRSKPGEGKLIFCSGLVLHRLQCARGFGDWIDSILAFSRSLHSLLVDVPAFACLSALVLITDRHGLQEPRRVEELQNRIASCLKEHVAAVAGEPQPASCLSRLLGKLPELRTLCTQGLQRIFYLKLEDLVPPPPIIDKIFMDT

T1 sequence (Q06219 whole entry D594A, the tested form may be a part): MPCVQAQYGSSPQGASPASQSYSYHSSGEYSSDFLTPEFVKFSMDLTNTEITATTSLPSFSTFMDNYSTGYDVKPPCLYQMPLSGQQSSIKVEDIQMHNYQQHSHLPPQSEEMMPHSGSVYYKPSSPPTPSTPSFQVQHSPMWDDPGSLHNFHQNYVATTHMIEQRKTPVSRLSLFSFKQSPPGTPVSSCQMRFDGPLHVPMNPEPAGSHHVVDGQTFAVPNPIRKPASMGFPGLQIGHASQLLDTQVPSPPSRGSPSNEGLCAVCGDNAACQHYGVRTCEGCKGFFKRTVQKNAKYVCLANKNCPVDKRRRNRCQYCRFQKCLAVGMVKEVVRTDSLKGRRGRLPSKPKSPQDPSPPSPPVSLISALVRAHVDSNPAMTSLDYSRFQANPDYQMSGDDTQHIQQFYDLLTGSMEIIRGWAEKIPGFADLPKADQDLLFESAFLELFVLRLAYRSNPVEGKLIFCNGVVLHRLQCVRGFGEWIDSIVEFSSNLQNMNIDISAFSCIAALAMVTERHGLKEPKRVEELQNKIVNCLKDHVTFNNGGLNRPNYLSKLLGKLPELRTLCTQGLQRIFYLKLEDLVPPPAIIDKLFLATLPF
T2 sequence (Q06219 whole entry K590A, the tested form may be a part): as the sequence (Q06219 whole entry D594A, the tested form may be a part) above, with K590A, A594D counted along it
T4 sequence (Q06219 whole entry S441A, the tested form may be a part): as the sequence (Q06219 whole entry D594A, the tested form may be a part) above, with S441A, A594D counted along it
T3 sequence (Q06219 whole entry L593A, the tested form may be a part): as the sequence (Q06219 whole entry D594A, the tested form may be a part) above, with L593A, A594D counted along it
T5 sequence (Q06219 whole entry, change not shown, the tested form may be a part): as the sequence (Q06219 whole entry D594A, the tested form may be a part) above, with A594D counted along it

SMILES | Luciferase activity (fold) [1] | Luciferase activity (fold) [2] | Luciferase activity (fold) [3] | Luciferase activity (fold) [4] | Luciferase activity (fold) [5] | Luciferase activity (fold), Nur77 [6] | Luciferase activity (fold), Nur77 ([6]; listed as cytosporone B)
CCN(CC)Cc1cc(Nc2ccnc3cc(Cl)ccc23)ccc1O [AQ, amodiaquine] | 15.1749 fold and 15.4902 fold and 14.0814 fold | 14.5075 fold and 14.599 fold and 17.3856 fold | 14.8074 fold and 14.193 fold and 15.2957 fold | 14.9384 fold and 15.2215 fold and 14.6264 fold | 16.1226 fold and 16.0906 fold and 15.547 fold | – | –
CCCCCCCC(=O)c1c(O)cc(O)cc1CC(=O)OCC [Cytosporone B, cytosporone B] | – | – | – | – | – | 13.029 fold and 14.4047 fold and 12.8586 fold | robustly increased
